Measured values reported in ChEMBL document CHEMBL3259812, “Structural modifications of 4-aryl-4-oxo-2-aminylbutanamides and their acetyl- and butyrylcholinesterase inhibitory activity. Investigation of AChE-ligand interactions by docking calculations and molecular dynamics simulations” (Eur J Med Chem, 2014).
Calls of active or inactive are those of the source. The rule behind the calls is not given here.

Tests used:
Cholinesterase [1] = target: T1, Cholinesterase (Equus caballus, UniProt P81908)
T1 sequence (P81908 whole entry): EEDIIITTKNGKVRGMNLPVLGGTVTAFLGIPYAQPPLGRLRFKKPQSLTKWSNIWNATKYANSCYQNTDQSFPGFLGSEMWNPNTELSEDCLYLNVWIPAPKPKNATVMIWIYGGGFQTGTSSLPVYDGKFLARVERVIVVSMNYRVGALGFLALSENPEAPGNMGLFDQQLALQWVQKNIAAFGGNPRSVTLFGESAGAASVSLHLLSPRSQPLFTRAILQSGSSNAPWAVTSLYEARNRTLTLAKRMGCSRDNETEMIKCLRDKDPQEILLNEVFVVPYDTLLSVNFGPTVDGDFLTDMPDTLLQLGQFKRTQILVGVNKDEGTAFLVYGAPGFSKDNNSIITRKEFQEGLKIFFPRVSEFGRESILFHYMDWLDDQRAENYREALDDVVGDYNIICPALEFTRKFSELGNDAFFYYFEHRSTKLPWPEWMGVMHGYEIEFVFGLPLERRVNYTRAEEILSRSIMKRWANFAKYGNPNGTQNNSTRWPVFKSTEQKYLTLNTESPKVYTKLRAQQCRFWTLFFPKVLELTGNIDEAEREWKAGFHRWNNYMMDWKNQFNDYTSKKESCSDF
Description: (§1) Inhibition of horse serum BChE using butyrylthiocholine iodide as substrate preincubated for 35 mins followed by enzyme addition measured after 3 mins by Ellman's method

[2] = target: Cholinesterase (Equus caballus) (UniProt P81908); assay: Inhibition of horse serum BChE using butyrylthiocholine iodide as substrate assessed as residual activity at 15 uM preincubated for 35 mins followed by enzyme addition measured after 3 mins by Ellman's method relative to control
Cholinesterase (Equus caballus), sequence (P81908 whole entry): as above

[3] = target: Cholinesterase (Equus caballus) (UniProt P81908); assay: Inhibition of horse serum BChE using butyrylthiocholine iodide as substrate assessed as residual activity at 40 uM preincubated for 35 mins followed by enzyme addition measured after 3 mins by Ellman's method relative to control
[4] = target: Cholinesterase (Equus caballus) (UniProt P81908); assay: Inhibition of horse serum BChE using butyrylthiocholine iodide as substrate assessed as residual activity at 30 uM preincubated for 35 mins followed by enzyme addition measured after 3 mins by Ellman's method relative to control
[5] = Stability of the compound; format: physicochemical
Electrophorus electricus [6] = assay: Inhibition of electric eel acetylcholinesterase type VI-S using acetylthiocholine iodide as substrate assessed as residual activity at 20 uM preincubated for 35 mins followed by enzyme addition measured after 3 mins by Ellman's method relative to control
[7] = Mixed type inhibition of electric eel acetylcholinesterase type VI-S using acetylthiocholine iodide as substrate assessed as enzyme-inhibitor complex by Lineweaver-Burk plot analysis; set-up: species or system Electrophorus electricus
Electrophorus electricus [8] = assay: Reversible inhibition of electric eel acetylcholinesterase type VI-S using acetylthiocholine iodide as substrate by Lineweaver-Burk plot analysis
Cholinesterase [9] = target: T1, Cholinesterase; remark: listed apart in the source
Description: as §1

Electrophorus electricus [10] = assay: Inhibition of electric eel acetylcholinesterase type VI-S using acetylthiocholine iodide as substrate assessed as residual activity at […] preincubated for 35 mins followed by enzyme addition measured after 3 mins by Ellman's method relative to control
Electrophorus electricus [11] = assay: Inhibition of electric eel acetylcholinesterase type VI-S using acetylthiocholine iodide as substrate assessed as residual activity at 8.5 uM preincubated for 35 mins followed by enzyme addition measured after 3 mins by Ellman's method relative to control
[12] = target: Cholinesterase (Equus caballus) (UniProt P81908); assay: Inhibition of horse serum BChE using butyrylthiocholine iodide as substrate assessed as residual activity at 20 uM preincubated for 35 mins followed by enzyme addition measured after 3 mins by Ellman's method relative to control
Electrophorus electricus [13] = assay: Inhibition of electric eel acetylcholinesterase type VI-S using acetylthiocholine iodide as substrate assessed as residual activity at 15 uM preincubated for 35 mins followed by enzyme addition measured after 3 mins by Ellman's method relative to control
Electrophorus electricus [14] = assay: Inhibition of electric eel acetylcholinesterase type VI-S using acetylthiocholine iodide as substrate assessed as residual activity at 25 uM preincubated for 35 mins followed by enzyme addition measured after 3 mins by Ellman's method relative to control
[15] = target: Cholinesterase (Equus caballus) (UniProt P81908); assay: Inhibition of horse serum BChE using butyrylthiocholine iodide as substrate assessed as residual activity at 10 uM preincubated for 35 mins followed by enzyme addition measured after 3 mins by Ellman's method relative to control

## CC(C)c1ccc(C(=O)CC(C(=O)NC2CCCCC2)N2CCOCC2)c(C(C)C)c1 (centres undefined)
Cholinesterase [1]
  IC50: > 20 µM

## CC(C)c1ccc(C(=O)CC(C(=O)Nc2ccccc2)N2CCCCC2)c(C(C)C)c1 (centres undefined)
[2]
  Activity: 60.1%

## CC(C)c1ccc(C(=O)CC(C(=O)Nc2ccccc2)N2CCOCC2)cc1 (centres undefined)
[3]
  Activity: 72.8%

## CC(C)c1ccc(C(=O)CC(C(=O)Nc2ccccc2)n2ccnc2)cc1 (centres undefined)
[4]
  Activity: 90%

## O=C(CC(C(=O)Nc1ccccc1)N1CCCCC1)c1cccc2c1CCCC2 (centres undefined)
[2]
  Activity: 78.5%

## O=C(CC(C(=O)Nc1ccccc1)N1CCOCC1)c1cccc2c1CCCC2 (centres undefined)
[3]
  Activity: 87%

## O=C(CC(C(=O)Nc1ccccc1)n1ccnc1)c1cccc2c1CCCC2 (centres undefined)
[3]
  Activity: 83%

## COc1cc(NC(=O)C(CC(=O)c2ccc(C(C)C)cc2)N2CCCCC2)cc(OC)c1 (racemic)
[5]
  Stability: Unstable

## COc1cc(NC(=O)C(CC(=O)c2ccc(C(C)C)cc2)n2ccnc2)cc(OC)c1 (racemic)
Cholinesterase [1]
  IC50: > 20 µM

## COc1cc(NC(=O)C(CC(=O)c2ccc(C(C)C)cc2)N2CCOCC2)cc(OC)c1 (racemic)
Cholinesterase [1]
  IC50: > 20 µM

## COc1cc(NC(=O)C(CC(=O)c2ccc(C(C)C)cc2)N2CCN(C)CC2)cc(OC)c1 (racemic)
Electrophorus electricus [6]
  Activity: 76.7%
Cholinesterase [1]
  IC50: > 20 µM

## CC(C)c1ccc(NC(=O)C(CC(=O)c2ccc(C(C)C)cc2)N2CCCCC2)cc1 (racemic)
[5]
  Stability: Unstable

## CC(C)c1ccc(NC(=O)C(CC(=O)c2ccc(C(C)C)cc2)n2ccnc2)cc1 (racemic)
Cholinesterase [1]
  IC50: > 20 µM

## CC(C)c1ccc(NC(=O)C(CC(=O)c2ccc(C(C)C)cc2)N2CCOCC2)cc1 (racemic)
Cholinesterase [1]
  IC50: > 20 µM

## COc1ccc(NC(=O)C(CC(=O)c2ccc(C(C)C)cc2C(C)C)N2CCCCC2)cc1OC (racemic)
Cholinesterase [1]
  IC50: > 7.5 µM

## COc1ccc(NC(=O)C(CC(=O)c2ccc(C(C)C)cc2C(C)C)N2CCN(C)CC2)cc1OC (racemic)
Cholinesterase [1]
  IC50: 5.26 µM

## CC(C)c1ccc(NC(=O)C(CC(=O)c2ccc(C(C)C)cc2C(C)C)N2CCCCC2)cc1 (racemic)
[7]
  Ki: 0.52 µM
Electrophorus electricus [8]
  inhibition: Active
Cholinesterase [9]
  IC50: ND(Insoluble)

## CC(C)c1ccc(NC(=O)C(CC(=O)c2ccc(C(C)C)cc2C(C)C)n2ccnc2)cc1 (racemic)
Cholinesterase [1]
  IC50: > 20 µM

## CC(C)c1ccc(NC(=O)C(CC(=O)c2ccc(C(C)C)cc2C(C)C)N2CCN(C)CC2)cc1 (racemic)
Electrophorus electricus [10]
  Activity: 43.6%
Cholinesterase [1]
  IC50: 0.74 µM

## CC(C)c1ccc(C(=O)CC(C(=O)NC2CCCCC2)N2CCN(C)CC2)c(C(C)C)c1 (racemic)
Cholinesterase [1]
  IC50: 2.25 µM

## O=C(CC(C(=O)NC1CCCCC1)N1CCCCC1)c1cccc2c1CCCC2 (racemic)
Cholinesterase [1]
  IC50: > 20 µM

## O=C(CC(C(=O)NC1CCCCC1)n1ccnc1)c1cccc2c1CCCC2 (racemic)
Cholinesterase [1]
  IC50: > 20 µM

## O=C(CC(C(=O)NC1CCCCC1)N1CCOCC1)c1cccc2c1CCCC2 (racemic)
Cholinesterase [9]
  IC50: ND(Insoluble)

## CC(C)c1ccc(NC(=O)C(CC(=O)c2cccc3c2CCCC3)N2CCCCC2)cc1 (racemic)
Cholinesterase [9]
  IC50: ND(Insoluble)

## CC(C)c1ccc(NC(=O)C(CC(=O)c2cccc3c2CCCC3)n2ccnc2)cc1 (racemic)
Cholinesterase [1]
  IC50: > 20 µM

## CC(C)c1ccc(NC(=O)C(CC(=O)c2cccc3c2CCCC3)N2CCOCC2)cc1 (racemic)
Cholinesterase [1]
  IC50: > 15 µM

## CC(C)c1ccc(NC(=O)C(CC(=O)c2cccc3c2CCCC3)N2CCN(C)CC2)cc1 (racemic)
Electrophorus electricus [11]
  Activity: 86.5%
Cholinesterase [1]
  IC50: 10.8 µM

## CC(C)c1ccc(C(=O)CC(C(=O)Nc2ccccc2)N2CCC(Cc3ccccc3)CC2)cc1 (racemic)
Cholinesterase [1]
  IC50: > 20 µM

## COc1cc(NC(=O)C(CC(=O)c2ccc(C(C)C)cc2)N2CCN(CCN(C)C)CC2)cc(OC)c1 (racemic)
Cholinesterase [1]
  IC50: > 20 µM

## CC(C)c1ccc(C(=O)CC(C(=O)NC2CCCCC2)N2CCCCC2)c(C(C)C)c1 (racemic)
[12]
  Activity: 72.7%

## CC(C)c1ccc(C(=O)CC(C(=O)NC2CCCCC2)N2CCCCC2)cc1 (racemic)
Electrophorus electricus [13]
  Activity: 63.1%
[12]
  Activity: 65%

## CC(C)c1ccc(C(=O)CC(C(=O)NC2CCCCC2)N2CCN(C)CC2)cc1 (racemic)
Electrophorus electricus [14]
  Activity: 86.2%
[12]
  Activity: 66.2%

## CC(C)c1ccc(C(=O)CC(C(=O)NC2CCCCC2)N2CCOCC2)cc1 (racemic)
Electrophorus electricus [14]
  Activity: 85.1%
[15]
  Activity: 46.8%

## CC(C)c1ccc(C(=O)CC(C(=O)NC2CCCCC2)n2ccnc2)c(C(C)C)c1 (racemic)
[12]
  Activity: 65.8%

## CC(C)c1ccc(C(=O)CC(C(=O)NC2CCCCC2)n2ccnc2)cc1 (racemic)
Electrophorus electricus [13]
  Activity: 65.3%
[12]
  Activity: 76%

## CC(C)c1ccc(NC(=O)C(CC(=O)c2ccc(C(C)C)cc2)N2CCN(C)CC2)cc1 (racemic)
[2]
  Activity: 72.4%

## CC(C)c1ccc(NC(=O)C(CC(=O)c2ccc(C(C)C)cc2C(C)C)N2CCOCC2)cc1 (racemic)
Electrophorus electricus [10]
  Activity: 44.4%
[15]
  Activity: 73.6%

## CC(C)c1ccc2c(c1C(=O)CC(C(=O)NC1CCCCC1)N1CCCCC1)CCCC2 (racemic)
[12]
  Activity: 61.5%

## CC(C)c1ccc2c(c1C(=O)CC(C(=O)NC1CCCCC1)N1CCN(C)CC1)CCCC2 (racemic)
[12]
  Activity: 39.1%

## CC(C)c1ccc2c(c1C(=O)CC(C(=O)NC1CCCCC1)N1CCOCC1)CCCC2 (racemic)
[12]
  Activity: 75.2%

## CC(C)c1ccc2c(c1C(=O)CC(C(=O)NC1CCCCC1)n1ccnc1)CCCC2 (racemic)
[12]
  Activity: 52.2%

## CN1CCN(C(CC(=O)c2cccc3c2CCCC3)C(=O)NC2CCCCC2)CC1 (racemic)
[12]
  Activity: 56.7%

## COc1ccc(NC(=O)C(CC(=O)c2ccc(C(C)C)cc2C(C)C)N2CCOCC2)cc1OC (racemic)
[15]
  Activity: 62.4%

## COc1ccc(NC(=O)C(CC(=O)c2ccc(C(C)C)cc2C(C)C)n2ccnc2)cc1OC (racemic)
[12]
  Activity: 78.4%
